Assay results from patent publication US11542240B2, “STK19 inhibitors for treatment of cancer” (TRUSTEES OF BOSTON UNIVERSITY, priority 2018, dated 2023).
Like-named read-outs stand apart in the source and are kept apart here.

Assays:
Experiment in all cases: biochemical
Type in all cases: binding
[1] = biological target: panel of 468 diverse kinases (Homo sapiens, UniProt P08631); details: HCK; 1000 nM; read-out: Percent Control
[2] = biological target: panel of 468 diverse kinases (Homo sapiens, UniProt Q9UK32); details: 1000 nM, read-out: Percent Control
[3] = biological target: panel of 468 diverse kinases (Homo sapiens, UniProt P08581, Y1235D); details: MET(Y1235D); 1000 nM; read-out: Percent Control
[4] = biological target: panel of 468 diverse kinases (Homo sapiens, UniProt Q6ZN16); details: MAP3K15; 1000 nM; read-out: Percent Control
[5] = biological target: panel of 468 diverse kinases (Homo sapiens, UniProt Q13464); details: ROCK1; 1000 nM; read-out: Percent Control
[6] = biological target: panel of 468 diverse kinases (Homo sapiens, UniProt P14616); details: INSRR; 1000 nM; read-out: Percent Control
[7] = biological target: panel of 468 diverse kinases (Homo sapiens, UniProt P36896); details: ACVR1B; 1000 nM; read-out: Percent Control
[8] = biological target: panel of 468 diverse kinases (Homo sapiens, UniProt O75676); details: 1000 nM, read-out: Percent Control
[9] = biological target: panel of 468 diverse kinases (Homo sapiens, UniProt Q9Y2H1); details: NDR2; 1000 nM; read-out: Percent Control
[10] = biological target: panel of 468 diverse kinases (Homo sapiens, UniProt P00519, Q252H); details: 1000 nM, read-out: Percent Control
[11] = biological target: panel of 468 diverse kinases (Homo sapiens, UniProt Q92918); details: HPK1; 1000 nM; read-out: Percent Control
[12] = biological target: panel of 468 diverse kinases (Homo sapiens, UniProt P29322); details: EPHA8; 1000 nM; read-out: Percent Control
[13] = biological target: panel of 468 diverse kinases (Homo sapiens, UniProt O96013); details: PAK4; 1000 nM; read-out: Percent Control
[14] = biological target: panel of 468 diverse kinases (Homo sapiens, UniProt Q8NG66); details: NEK11; 1000 nM; read-out: Percent Control
[15] = biological target: panel of 468 diverse kinases (Homo sapiens, UniProt Q9H4A3); details: WNK1; 1000 nM; read-out: Percent Control
[16] = biological target: panel of 468 diverse kinases (Homo sapiens, UniProt P57078); details: RIPK4; 1000 nM; read-out: Percent Control
[17] = biological target: panel of 468 diverse kinases (Homo sapiens, UniProt P54646); details: AMPK-alpha2; 1000 nM; read-out: Percent Control
[18] = biological target: panel of 468 diverse kinases (Homo sapiens, UniProt Q9UEW8); details: STK39; 1000 nM; read-out: Percent Control
[19] = biological target: panel of 468 diverse kinases (Homo sapiens, UniProt P36888, D835H); details: FLT3(D835H); 1000 nM; read-out: Percent Control
[20] = biological target: panel of 468 diverse kinases (Homo sapiens, UniProt Q9UQM7); details: CAMK2A; 1000 nM; read-out: Percent Control
[21] = biological target: panel of 468 diverse kinases (Homo sapiens, UniProt Q92630); details: DYRK2; 1000 nM; read-out: Percent Control
[22] = biological target: panel of 468 diverse kinases (Homo sapiens, UniProt P33981); details: TTK; 1000 nM; read-out: Percent Control
[23] = biological target: panel of 468 diverse kinases (Homo sapiens, UniProt Q86V86); details: PIM3; 1000 nM; read-out: Percent Control
[24] = biological target: panel of 468 diverse kinases (Homo sapiens, UniProt Q14004); details: read-out: Percent Control
[25] = biological target: panel of 468 diverse kinases (Homo sapiens, UniProt O95835); details: LATS1; 1000 nM; read-out: Percent Control
[26] = biological target: panel of 468 diverse kinases (Homo sapiens, UniProt Q9HBY8); details: SGK2; 1000 nM; read-out: Percent Control
[27] = biological target: panel of 468 diverse kinases (Homo sapiens, UniProt P07949); details: RET; 1000 nM; read-out: Percent Control
[28] = biological target: panel of 468 diverse kinases (Homo sapiens, UniProt Q96NX5); details: CAMK1G; 1000 nM; read-out: Percent Control
[29] = biological target: panel of 468 diverse kinases (Homo sapiens, UniProt Q15831); details: LKB1; 1000 nM; read-out: Percent Control
[30] = biological target: panel of 468 diverse kinases (Homo sapiens, UniProt P15056); details: BRAF; 1000 nM; read-out: Percent Control

Chain of panel of 468 diverse kinases (Homo sapiens, UniProt P14616) (P14616 27-742 limits assumed): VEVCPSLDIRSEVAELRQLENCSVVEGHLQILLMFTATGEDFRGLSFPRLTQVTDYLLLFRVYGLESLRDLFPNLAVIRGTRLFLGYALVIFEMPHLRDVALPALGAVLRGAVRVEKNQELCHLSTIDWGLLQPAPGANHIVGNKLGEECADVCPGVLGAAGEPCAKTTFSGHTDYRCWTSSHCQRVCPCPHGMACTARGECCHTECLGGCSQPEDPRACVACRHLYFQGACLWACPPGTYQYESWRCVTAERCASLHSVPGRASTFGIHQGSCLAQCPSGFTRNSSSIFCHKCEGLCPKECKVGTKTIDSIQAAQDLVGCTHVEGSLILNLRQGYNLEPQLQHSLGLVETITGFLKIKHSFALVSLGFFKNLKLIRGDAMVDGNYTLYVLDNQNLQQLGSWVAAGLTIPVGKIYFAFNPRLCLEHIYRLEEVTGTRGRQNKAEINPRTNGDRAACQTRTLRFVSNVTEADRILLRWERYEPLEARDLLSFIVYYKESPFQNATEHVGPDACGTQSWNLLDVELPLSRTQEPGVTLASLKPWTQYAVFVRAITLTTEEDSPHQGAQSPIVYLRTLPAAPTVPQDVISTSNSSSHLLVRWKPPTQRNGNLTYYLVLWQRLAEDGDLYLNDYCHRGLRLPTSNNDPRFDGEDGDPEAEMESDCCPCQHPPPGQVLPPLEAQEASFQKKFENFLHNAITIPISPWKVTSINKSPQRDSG
Chain of panel of 468 diverse kinases (Homo sapiens, UniProt P14616) (P14616 747-1297 limits assumed): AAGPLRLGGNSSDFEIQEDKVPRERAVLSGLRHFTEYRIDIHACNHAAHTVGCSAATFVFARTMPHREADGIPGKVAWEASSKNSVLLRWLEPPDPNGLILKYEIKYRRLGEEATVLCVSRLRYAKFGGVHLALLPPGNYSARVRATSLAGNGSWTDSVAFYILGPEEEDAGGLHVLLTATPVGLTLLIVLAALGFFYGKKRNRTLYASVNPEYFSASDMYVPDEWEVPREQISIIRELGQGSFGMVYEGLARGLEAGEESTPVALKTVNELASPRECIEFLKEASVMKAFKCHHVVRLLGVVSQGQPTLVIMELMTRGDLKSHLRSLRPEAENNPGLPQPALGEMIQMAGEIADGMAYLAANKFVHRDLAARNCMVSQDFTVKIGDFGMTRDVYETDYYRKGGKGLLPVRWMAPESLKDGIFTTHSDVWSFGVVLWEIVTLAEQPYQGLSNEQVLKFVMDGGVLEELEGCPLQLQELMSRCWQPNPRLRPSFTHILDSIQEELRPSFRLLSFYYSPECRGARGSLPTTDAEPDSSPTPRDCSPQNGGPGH
Chain of panel of 468 diverse kinases (Homo sapiens, UniProt Q13464) (Q13464 2-1354 limits assumed): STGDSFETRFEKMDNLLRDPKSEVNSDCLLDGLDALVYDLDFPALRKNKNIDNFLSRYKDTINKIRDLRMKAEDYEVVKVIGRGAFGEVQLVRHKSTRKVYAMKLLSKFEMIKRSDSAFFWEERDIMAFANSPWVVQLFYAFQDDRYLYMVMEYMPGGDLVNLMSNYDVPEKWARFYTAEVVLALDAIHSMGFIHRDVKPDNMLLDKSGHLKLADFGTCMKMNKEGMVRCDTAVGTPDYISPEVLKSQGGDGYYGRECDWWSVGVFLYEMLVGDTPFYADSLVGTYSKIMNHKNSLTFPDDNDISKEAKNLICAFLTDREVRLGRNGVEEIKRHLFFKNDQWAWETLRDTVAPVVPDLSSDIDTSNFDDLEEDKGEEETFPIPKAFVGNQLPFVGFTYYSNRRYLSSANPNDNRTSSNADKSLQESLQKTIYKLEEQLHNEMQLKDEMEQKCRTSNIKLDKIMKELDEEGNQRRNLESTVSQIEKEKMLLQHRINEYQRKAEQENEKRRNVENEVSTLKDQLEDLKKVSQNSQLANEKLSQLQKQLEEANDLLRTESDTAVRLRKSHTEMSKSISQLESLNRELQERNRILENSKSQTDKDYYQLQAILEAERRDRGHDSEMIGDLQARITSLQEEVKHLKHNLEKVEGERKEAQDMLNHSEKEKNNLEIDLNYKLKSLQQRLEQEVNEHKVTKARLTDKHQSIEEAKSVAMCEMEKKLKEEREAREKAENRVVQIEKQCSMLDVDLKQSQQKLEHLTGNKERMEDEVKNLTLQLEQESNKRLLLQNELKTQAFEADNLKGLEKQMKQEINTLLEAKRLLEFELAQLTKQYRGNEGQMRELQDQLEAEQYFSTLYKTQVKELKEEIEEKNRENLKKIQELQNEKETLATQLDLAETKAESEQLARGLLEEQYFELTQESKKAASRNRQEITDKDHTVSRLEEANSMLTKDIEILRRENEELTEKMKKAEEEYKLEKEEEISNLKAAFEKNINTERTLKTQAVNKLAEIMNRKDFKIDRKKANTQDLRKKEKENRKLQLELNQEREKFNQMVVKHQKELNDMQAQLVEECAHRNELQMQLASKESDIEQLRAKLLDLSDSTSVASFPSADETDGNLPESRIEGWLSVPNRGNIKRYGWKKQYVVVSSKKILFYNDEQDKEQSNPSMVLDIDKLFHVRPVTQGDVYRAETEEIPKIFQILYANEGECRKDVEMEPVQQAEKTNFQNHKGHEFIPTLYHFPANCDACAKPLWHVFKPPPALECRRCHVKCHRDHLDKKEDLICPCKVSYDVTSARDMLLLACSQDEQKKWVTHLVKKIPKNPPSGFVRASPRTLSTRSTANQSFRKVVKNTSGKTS
Chain of panel of 468 diverse kinases (Homo sapiens, UniProt Q9Y2H1) (Q9Y2H1 2-464 limits assumed): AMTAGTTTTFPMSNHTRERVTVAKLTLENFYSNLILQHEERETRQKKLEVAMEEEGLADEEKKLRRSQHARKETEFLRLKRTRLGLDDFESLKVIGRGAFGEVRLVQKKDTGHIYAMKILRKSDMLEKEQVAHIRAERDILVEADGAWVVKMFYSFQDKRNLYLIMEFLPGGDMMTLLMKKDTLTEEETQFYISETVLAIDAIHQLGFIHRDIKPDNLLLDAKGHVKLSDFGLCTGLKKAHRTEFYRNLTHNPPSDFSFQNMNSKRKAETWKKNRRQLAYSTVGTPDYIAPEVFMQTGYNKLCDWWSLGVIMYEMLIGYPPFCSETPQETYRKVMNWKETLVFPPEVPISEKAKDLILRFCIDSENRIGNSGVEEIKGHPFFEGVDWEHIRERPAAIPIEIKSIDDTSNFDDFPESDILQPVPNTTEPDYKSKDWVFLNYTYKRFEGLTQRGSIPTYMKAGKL
Chain of panel of 468 diverse kinases (Homo sapiens, UniProt P08581, Y1235D) (P08581 25-1390 Y1235D limits assumed): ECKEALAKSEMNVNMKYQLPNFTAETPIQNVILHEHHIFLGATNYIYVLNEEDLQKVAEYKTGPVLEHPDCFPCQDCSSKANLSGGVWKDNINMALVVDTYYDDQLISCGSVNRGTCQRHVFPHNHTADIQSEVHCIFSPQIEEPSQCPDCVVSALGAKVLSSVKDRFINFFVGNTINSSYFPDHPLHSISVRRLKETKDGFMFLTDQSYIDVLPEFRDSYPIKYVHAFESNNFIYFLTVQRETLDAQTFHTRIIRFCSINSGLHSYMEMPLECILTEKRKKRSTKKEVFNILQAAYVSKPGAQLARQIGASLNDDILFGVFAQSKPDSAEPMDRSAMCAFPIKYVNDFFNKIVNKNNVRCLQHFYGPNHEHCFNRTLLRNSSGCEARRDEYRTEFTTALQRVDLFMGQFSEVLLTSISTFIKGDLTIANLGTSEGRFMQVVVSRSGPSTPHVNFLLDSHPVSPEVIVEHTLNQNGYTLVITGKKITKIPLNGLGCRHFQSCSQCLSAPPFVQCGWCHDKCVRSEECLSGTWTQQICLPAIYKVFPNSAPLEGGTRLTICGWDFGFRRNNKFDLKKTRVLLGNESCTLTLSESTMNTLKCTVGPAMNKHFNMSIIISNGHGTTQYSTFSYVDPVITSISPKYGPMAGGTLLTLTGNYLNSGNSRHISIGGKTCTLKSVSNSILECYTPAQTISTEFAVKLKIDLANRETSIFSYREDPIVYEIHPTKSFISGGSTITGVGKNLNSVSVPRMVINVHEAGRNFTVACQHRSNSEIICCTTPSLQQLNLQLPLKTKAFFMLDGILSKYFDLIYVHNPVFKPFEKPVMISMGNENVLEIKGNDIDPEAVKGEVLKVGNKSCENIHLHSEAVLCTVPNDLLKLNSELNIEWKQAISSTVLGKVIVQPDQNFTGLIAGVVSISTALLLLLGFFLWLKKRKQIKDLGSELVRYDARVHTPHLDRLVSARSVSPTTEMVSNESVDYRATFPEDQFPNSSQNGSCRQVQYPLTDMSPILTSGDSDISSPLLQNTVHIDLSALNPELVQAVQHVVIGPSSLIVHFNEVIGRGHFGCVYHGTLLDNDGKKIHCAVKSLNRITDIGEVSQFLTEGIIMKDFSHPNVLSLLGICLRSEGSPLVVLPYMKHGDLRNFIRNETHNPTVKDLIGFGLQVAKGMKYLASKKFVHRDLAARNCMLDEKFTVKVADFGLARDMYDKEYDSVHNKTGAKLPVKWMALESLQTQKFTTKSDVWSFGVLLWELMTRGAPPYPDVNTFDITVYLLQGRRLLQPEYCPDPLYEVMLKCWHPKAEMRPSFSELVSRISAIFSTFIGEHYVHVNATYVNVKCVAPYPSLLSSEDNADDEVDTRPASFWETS
Chain of panel of 468 diverse kinases (Homo sapiens, UniProt P36896) (P36896 24-505 limits assumed): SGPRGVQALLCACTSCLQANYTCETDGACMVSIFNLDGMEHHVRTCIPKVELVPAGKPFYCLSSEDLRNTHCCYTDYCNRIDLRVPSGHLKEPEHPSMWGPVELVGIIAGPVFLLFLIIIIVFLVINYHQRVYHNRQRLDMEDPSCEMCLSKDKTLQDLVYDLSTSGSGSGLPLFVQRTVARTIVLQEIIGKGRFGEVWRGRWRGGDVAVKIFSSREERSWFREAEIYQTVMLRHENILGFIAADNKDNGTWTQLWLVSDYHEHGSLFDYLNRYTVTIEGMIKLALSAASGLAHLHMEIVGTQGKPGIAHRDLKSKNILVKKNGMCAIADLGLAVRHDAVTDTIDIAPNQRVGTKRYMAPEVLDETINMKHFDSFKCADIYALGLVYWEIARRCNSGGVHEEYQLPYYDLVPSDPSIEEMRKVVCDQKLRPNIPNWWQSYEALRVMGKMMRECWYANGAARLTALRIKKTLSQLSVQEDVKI

COc1cc2nc(NC3CC3)nc(NC3CCN(C(C)C)CC3)c2cc1OC [Formula IV]
remaining activity at 1 µM [1]: 95% | remaining activity at 1 µM ([2]; RSK4(Kin.Dom.1-N-terminal)): 92% | remaining activity at 1 µM ([2]; RSK4(Kin.Dom.2-C-terminal)): 82% | remaining activity at 1 µM [3]: 93% | remaining activity at 1 µM [4]: 52% | remaining activity at 1 µM [5]: 45% | remaining activity at 1 µM [6]: 86% | remaining activity at 1 µM [7]: 94% | remaining activity at 1 µM ([8]; RPS6KA4(Kin.Dom.1-N-terminal)): 90% | remaining activity at 1 µM ([8]; RPS6KA4(Kin.Dom.2-C-terminal)): 46% | remaining activity at 1 µM [9]: 100% | remaining activity at 1 µM ([10]; ABL1(Q252H)-nonphosphorylated): 84% | remaining activity at 1 µM ([10]; ABL1(Q252H)-phosphorylated): 69% | remaining activity at 1 µM [11]: 86% | remaining activity at 1 µM [12]: 93% | remaining activity at 1 µM [13]: 96% | remaining activity at 1 µM [14]: 42% | remaining activity at 1 µM [15]: 59% | remaining activity at 1 µM [16]: 99% | remaining activity at 1 µM [17]: 93% | remaining activity at 1 µM [18]: 58% | remaining activity at 1 µM [19]: 81% | remaining activity at 1 µM [20]: 87% | remaining activity at 1 µM [21]: 84% | remaining activity at 1 µM [22]: 85% | remaining activity at 1 µM [23]: 85% | remaining activity at 1 µM [24]: 55% | remaining activity at 1 µM [25]: 100% | remaining activity at 1 µM [26]: 64% | remaining activity at 1 µM [27]: 100% | remaining activity at 1 µM [28]: 99% | remaining activity at 1 µM [29]: 97% | remaining activity at 1 µM [30]: 88%
